Measurements taken from patent US20060148009A1, “Prediction and assessment of immunogenicity” (Xencor, Inc., priority 2004, published 2006).

Test system: MHC class II proteins on B cells (DRB1*0701 DQA1*0201 DQB1*0202)
Assay: Peptide binding assay: competition of biotinylated EBV280-290 binding to B cells, flow cytometry
Conditions: FIG. 29
Description: Peptide binding to MHC class II proteins on the surface of Epstein-Barr virus-transformed B lymphocytes was tested by quantitative flow cytometric analysis (Busch et al. 1990), with modifications. Low resolution HLA typed B cell lines (DR2 and DR7) were obtained from the Coriell Institute for Medical Research (Camden, N.J.). Those cell lines were HLA typed at high resolution for DRB1, DQA1 and DQB1. The B cell lines GM03107, GM08605, and Jesthom were selected for binding studies. The following MHC allele and reference peptide combinations were used: DRB1*0101 and influenzae peptide HA307-319, […] (SEQ ID NO:48) (Busch, R. 1991); DRB1*0701 and Epstein-Barr virus peptide EBV280-290, […] (SEQ ID NO:49) (Omiya et al., 2002); DRB1*1501 and myelin basic protein MBP84-100, […] (SEQ ID NO:50) (Fridkis-Hareli et al., 2001). A biotin molecule followed by a caproic acid-caproic acid spacer was added to the N-terminus of the reference peptides. The binding of biotinylated peptides to the MHC molecules was tested at various pH values. The pH 5.5 was used to test competition with IFN-β peptides. Detection of peptide binding was done with streptavidin-AlexaFluor546 (Molecular Probes, Eugene, O.R.) in a PCA-96 flow cell counter (Guava Technologies Inc., Hayward, Calif.). […]

Sequence: HYLKAKEYSHCAWTIVR
- competition of EBV280-290 peptide binding to B cells: dose-dependent competition
